Earlier results as cited in patent US7625708B1 (priority 2005, dated 2009).

Experiments:
[1] = rabbit, in vivo
[2] = system: NAD(P)H: Quinone Oxidoreductase I (NQO I)
[3] = system: Aldehyde Dehydrogenase (ALDH)
[4] = system: Glutathion-S-Transferase (GST)
[5] = system: Cytochrome P450 1A1 (CYP 1A1)
GDNF mRNA = details: rat, in vivo

CNC(=O)ON=C(C)SC [methomyl]
detection in the hair shaft [1]: could be detected

Cc1ccc2cc3c(ccc4ccccc43)c3c2c1CC3 [methylcholanthrene]
induction of NQO I [2]: showed induction of NQO I (cell culture)
induction of ALDH [3]: showed induction of ALDH (cell culture)
induction of GST [4]: showed induction of GST (cell culture)
CYP1A1 activity [5]: showed increase CYP1A1 activity (cell

c1ccc(C2(N3CCCCC3)CCCCC2)cc1 [phencyclidine]
GDNF mRNA expression (GDNF mRNA): GDNF mRNA expression increased in rats

CCC1(c2ccccc2)C(=O)NC(=O)NC1=O [phenobarbital]
CYP1A1 activity [5]: showed increase CYP1A1 activity (cell

O=c1cc(-c2ccccc2)oc2ccc3ccccc3c12 [β-naphthaoflavone]
CYP1A1 activity [5]: showed increase CYP1A1 activity (cell
